# Measurements taken from US9693556B2, “Herbicidal pyridazinone derivatives” (SYNGENTA LIMITED, priority 2011, dated 2017).
# Legend:
# Assay type in all cases: in vivo
# [1] = tested on: Alopecurus myosuroides (ALOMY); assay: Pre-emergence herbicidal glasshouse test on Alopecurus myosuroides; conditions: pre-emergence; 1000 g/h; evaluated after 13 days
# How it was run: (§1)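 Steps: sow seeds in standard soil; cultivate 1 d (pre-) or 8 d (post-emergence) at 24/16 °C, 14 h light, 65% humidity; spray 1000 g/h in acetone/water plus Tween 20; grow on, watering twice daily; score percentage damage after 13 d.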
# Setaria faberi (SETFA) [2] = assay: Pre-emergence herbicidal glasshouse test on Setaria faberi; conditions: pre-emergence; 1000 g/h; evaluated after 13 days
# How it was run: as §1
# [3] = tested on: Echinochloa crus-galli (ECHCG); assay: Pre-emergence herbicidal glasshouse test on Echinochloa crus-galli; conditions: pre-emergence; 1000 g/h; evaluated after 13 days
# How it was run: as §1
# Solanum nigrum (SOLNI) [4] = assay: Pre-emergence herbicidal glasshouse test on Solanum nigrum; conditions: pre-emergence; 1000 g/h; evaluated after 13 days
# How it was run: as §1
# [5] = tested on: Amaranthus retoflexus (AMARE); assay: Pre-emergence herbicidal glasshouse test on Amaranthus retoflexus; conditions: pre-emergence; 1000 g/h; evaluated after 13 days
# How it was run: as §1
# [6] = tested on: Ipomoea hederacea (IPOHE); assay: Pre-emergence herbicidal glasshouse test on Ipomoea hederacea; conditions: pre-emergence; 1000 g/h; evaluated after 13 days
# How it was run: as §1
# [7] = tested on: Alopecurus myosuroides (ALOMY); assay: Post-emergence herbicidal glasshouse test on Alopecurus myosuroides; conditions: post-emergence; 1000 g/h; evaluated after 13 days
# How it was run: as §1
# Setaria faberi (SETFA) [8] = assay: Post-emergence herbicidal glasshouse test on Setaria faberi; conditions: post-emergence; 1000 g/h; evaluated after 13 days
# How it was run: as §1
# [9] = tested on: Echinochloa crus-galli (ECHCG); assay: Post-emergence herbicidal glasshouse test on Echinochloa crus-galli; conditions: post-emergence; 1000 g/h; evaluated after 13 days
# How it was run: as §1
# Solanum nigrum (SOLNI) [10] = assay: Post-emergence herbicidal glasshouse test on Solanum nigrum; conditions: post-emergence; 1000 g/h; evaluated after 13 days
# How it was run: as §1
# [11] = tested on: Amaranthus retoflexus (AMARE); assay: Post-emergence herbicidal glasshouse test on Amaranthus retoflexus; conditions: post-emergence; 1000 g/h; evaluated after 13 days
# How it was run: as §1
# [12] = tested on: Ipomoea hederacea (IPOHE); assay: Post-emergence herbicidal glasshouse test on Ipomoea hederacea; conditions: post-emergence; 1000 g/h; evaluated after 13 days
# How it was run: as §1
smiles,measurement,setting,value
Cn1ncc(-c2cccnc2OCC(F)F)c(O)c1=O [Compound 4.011],PRE Application ALOMY herbicidal damage (five point scale),[1],1 (1=0-19% damage)
same,PRE Application SETFA herbicidal damage (five point scale),Setaria faberi (SETFA) [2],1 (1=0-19% damage)
same,PRE Application ECHCG herbicidal damage (five point scale),[3],1 (1=0-19% damage)
same,PRE Application SOLNI herbicidal damage (five point scale),Solanum nigrum (SOLNI) [4],1 (1=0-19% damage)
same,PRE Application AMARE herbicidal damage (five point scale),[5],1 (1=0-19% damage)
same,PRE Application IPOHE herbicidal damage (five point scale),[6],1 (1=0-19% damage)
same,POST Application ALOMY herbicidal damage (five point scale),[7],1 (1=0-19% damage)
same,POST Application SETFA herbicidal damage (five point scale),Setaria faberi (SETFA) [8],1 (1=0-19% damage)
same,POST Application ECHCG herbicidal damage (five point scale),[9],1 (1=0-19% damage)
same,POST Application SOLNI herbicidal damage (five point scale),Solanum nigrum (SOLNI) [10],5 (5=80-100% damage)
same,POST Application AMARE herbicidal damage (five point scale),[11],4 (4=60-79% damage)
same,POST Application IPOHE herbicidal damage (five point scale),[12],3 (3=40-59% damage)
Cn1ncc(-c2ccc(C(F)(F)F)nc2Cl)c(O)c1=O [Compound 4.014],PRE Application ALOMY herbicidal damage (five point scale),[1],1 (1=0-19% damage)
same,PRE Application SETFA herbicidal damage (five point scale),Setaria faberi (SETFA) [2],1 (1=0-19% damage)
same,PRE Application ECHCG herbicidal damage (five point scale),[3],5 (5=80-100% damage)
same,PRE Application SOLNI herbicidal damage (five point scale),Solanum nigrum (SOLNI) [4],4 (4=60-79% damage)
same,PRE Application AMARE herbicidal damage (five point scale),[5],5 (5=80-100% damage)
same,PRE Application IPOHE herbicidal damage (five point scale),[6],2 (2=20-39% damage)
same,POST Application ALOMY herbicidal damage (five point scale),[7],1 (1=0-19% damage)
same,POST Application SETFA herbicidal damage (five point scale),Setaria faberi (SETFA) [8],2 (2=20-39% damage)
same,POST Application ECHCG herbicidal damage (five point scale),[9],3 (3=40-59% damage)
same,POST Application SOLNI herbicidal damage (five point scale),Solanum nigrum (SOLNI) [10],5 (5=80-100% damage)
same,POST Application AMARE herbicidal damage (five point scale),[11],5 (5=80-100% damage)
same,POST Application IPOHE herbicidal damage (five point scale),[12],5 (5=80-100% damage)
Cn1ncc(-c2ccc(C(F)(F)F)nc2C#N)c(O)c1=O [Compound 4.015],PRE Application ALOMY herbicidal damage (five point scale),[1],1 (1=0-19% damage)
same,PRE Application SETFA herbicidal damage (five point scale),Setaria faberi (SETFA) [2],1 (1=0-19% damage)
same,PRE Application ECHCG herbicidal damage (five point scale),[3],1 (1=0-19% damage)
same,PRE Application SOLNI herbicidal damage (five point scale),Solanum nigrum (SOLNI) [4],1 (1=0-19% damage)
same,PRE Application AMARE herbicidal damage (five point scale),[5],1 (1=0-19% damage)
same,PRE Application IPOHE herbicidal damage (five point scale),[6],1 (1=0-19% damage)
same,POST Application ALOMY herbicidal damage (five point scale),[7],1 (1=0-19% damage)
same,POST Application SETFA herbicidal damage (five point scale),Setaria faberi (SETFA) [8],1 (1=0-19% damage)
same,POST Application ECHCG herbicidal damage (five point scale),[9],1 (1=0-19% damage)
same,POST Application SOLNI herbicidal damage (five point scale),Solanum nigrum (SOLNI) [10],1 (1=0-19% damage)
same,POST Application AMARE herbicidal damage (five point scale),[11],1 (1=0-19% damage)
same,POST Application IPOHE herbicidal damage (five point scale),[12],1 (1=0-19% damage)
Cn1ncc(-c2ccc(C(F)(F)F)nc2S(=O)(=O)N2CCOCC2)c(O)c1=O [Compound 4.016],PRE Application ALOMY herbicidal damage (five point scale),[1],5 (5=80-100% damage)
same,PRE Application SETFA herbicidal damage (five point scale),Setaria faberi (SETFA) [2],5 (5=80-100% damage)
same,PRE Application ECHCG herbicidal damage (five point scale),[3],5 (5=80-100% damage)
same,PRE Application SOLNI herbicidal damage (five point scale),Solanum nigrum (SOLNI) [4],5 (5=80-100% damage)
same,PRE Application AMARE herbicidal damage (five point scale),[5],5 (5=80-100% damage)
same,PRE Application IPOHE herbicidal damage (five point scale),[6],5 (5=80-100% damage)
same,POST Application ALOMY herbicidal damage (five point scale),[7],5 (5=80-100% damage)
same,POST Application SETFA herbicidal damage (five point scale),Setaria faberi (SETFA) [8],5 (5=80-100% damage)
same,POST Application ECHCG herbicidal damage (five point scale),[9],5 (5=80-100% damage)
same,POST Application SOLNI herbicidal damage (five point scale),Solanum nigrum (SOLNI) [10],5 (5=80-100% damage)
same,POST Application AMARE herbicidal damage (five point scale),[11],5 (5=80-100% damage)
same,POST Application IPOHE herbicidal damage (five point scale),[12],5 (5=80-100% damage)
CC(C)N(C)S(=O)(=O)c1nc(C(F)(F)F)ccc1-c1cnn(C)c(=O)c1O [Compound 4.017],PRE Application ALOMY herbicidal damage (five point scale),[1],4 (4=60-79% damage)
same,PRE Application SETFA herbicidal damage (five point scale),Setaria faberi (SETFA) [2],4 (4=60-79% damage)
same,PRE Application ECHCG herbicidal damage (five point scale),[3],5 (5=80-100% damage)
same,PRE Application SOLNI herbicidal damage (five point scale),Solanum nigrum (SOLNI) [4],5 (5=80-100% damage)
same,PRE Application AMARE herbicidal damage (five point scale),[5],5 (5=80-100% damage)
same,PRE Application IPOHE herbicidal damage (five point scale),[6],5 (5=80-100% damage)
same,POST Application ALOMY herbicidal damage (five point scale),[7],5 (5=80-100% damage)
same,POST Application SETFA herbicidal damage (five point scale),Setaria faberi (SETFA) [8],5 (5=80-100% damage)
same,POST Application ECHCG herbicidal damage (five point scale),[9],5 (5=80-100% damage)
same,POST Application SOLNI herbicidal damage (five point scale),Solanum nigrum (SOLNI) [10],5 (5=80-100% damage)
same,POST Application AMARE herbicidal damage (five point scale),[11],5 (5=80-100% damage)
same,POST Application IPOHE herbicidal damage (five point scale),[12],5 (5=80-100% damage)
